Here are results for six compounds from US7781473B2, “Heterocycle derivatives useful as selective androgen receptor modulators (SARMS)” (J & J Pharmaceutical Research & Development, LLC., priority 2004, dated 2010).

This test relates to castrated male Sprague Dawley rats. Nature of the test: Ventral Prostate and Levator ani Weight in vivo Assay (agonist, stimulation of tissue weight). Particulars: mature castrated rats, test compound oral gavage up to 30 mg/kg once daily for 14 days, vehicle = 0%, testosterone propionate = 100%; for % levator ani Stimulation: levator ani wet weight; for % Prostate Stimulation: ventral prostate wet weight. Also noted: species or system rat; key: A compound was designated as agonist active if it produced greater than or equal to 20% stimulation of levator ani at 30 mg/kg; they are listed herein as “inactive” as they did not meet the specified criteria defined above; A designation of “toxic” indicates that the compound exhibited toxicity in the rats tested. The method, then:
Ventral Prostate and Levator ani Weight in vivo Assay
Mature (150 to 200 g) castrated male Sprague Dawley rats (Charles River) were treated once daily for 14 days with test compound (usually administered by oral gavage at up to the desired dosage, up to 30 mg/kg in a volume of 1 mL, in 30% cyclodextrin or 0.5% methylcellulose vehicle), or with testosterone propionate (administered subcutaneously by injection at the nape of the neck at 5 mg/kg, in a volume of 0.1 mL in sesame oil), or with vehicle (1 mL of 30% cyclodextrin or 0.5% methylcellulose, given orally). On the fifteenth day, the rats were euthanized by asphyxiation in carbon dioxide. Ventral prostates and levator ani muscles were removed and their wet weights determined.
Test compound activity was determined as the percent stimulation of tissue weight, with the vehicle-treated control group set to zero percent and the testosterone alone-treated control group set to 100%. A compound was designated as agonist active if it produced greater than or equal to 20% stimulation of levator ani at 30 mg/kg.
Representative compounds of the present invention were tested according to the procedure described, with results as listed in Table 10 below.

`CC1(C(=O)N(C(=O)C(F)(F)F)c2ccc(C#N)c(C(F)(F)F)c2)CC(C(F)(F)F)=NN1` (stereo not drawn) [Compound 115, 3-Methyl-5-trifluoromethyl-3,4-dihydro-2H-pyrazole-3-carboxylic acid (4-cyano-3-trifluoromethyl-phenyl)-(2,2,2-trifluoro-acetyl)-amide]: the “% levator ani Stimulation” value is “inactive” and the “% Prostate Stimulation” value is “inactive”.

For the compound `CC1CC(C(=O)Nc2ccc(C#N)c(C(F)(F)F)c2)(C(F)(F)F)N=N1` (stereo not drawn) [Compound 114, 5-Methyl-3-trifluoromethyl-4,5-dihydro-3H-pyrazole-3-carboxylic acid (4-cyano-3-trifluoromethyl-phenyl)-amide], the “% levator ani Stimulation” value is “inactive” and the “% Prostate Stimulation” value was “inactive”.

On to `CC1(C(=O)Nc2ccc(C#N)c(C(F)(F)F)c2)CC(C(F)(F)C(F)(F)F)=NN1` (stereo not drawn) [Compound 98, 3-Methyl-5-pentafluoroethyl-3,4-dihydro-2H-pyrazole-3-carboxylic acid (4-cyano-3-trifluoromethyl-phenyl)-amide], for which the “% levator ani Stimulation” value is given as “active” and the “% Prostate Stimulation” value is “active”.

Take `CC1(C(=O)NCc2ccc(S(C)(=O)=O)cc2)CC(C(F)(F)F)=NN1` (stereo not drawn) [Compound 27, 3-Methyl-5-trifluoromethyl-3,4-dihydro-2H-pyrazole-3-carboxylic acid 4-methanesulfonyl-benzylamide]: the “% levator ani Stimulation” value is “inactive” and the “% Prostate Stimulation” value was “inactive”.

For `CSCCC1=NNC(C)(C(=O)Nc2ccc(C#N)c(C(F)(F)F)c2)C1` (stereo not drawn) [compound 79], the “% levator ani Stimulation” value is “inactive” and the “% Prostate Stimulation” value was “inactive”.

As to `CC1(C(=O)Nc2ccc(C#N)c(C(F)(F)F)c2)CC(C2CCCC2)=NN1` (stereo not drawn) [compound 78], the “% levator ani Stimulation” value was “inactive” and the “% Prostate Stimulation” value was “inactive”.
